Experimental data: patent publication US10466233B2, “Genetically encoded probe for quantification of lactate and methods for quantifying metabolic rates and lactate transport” (CENTRO DE ESTUDIOS CIENTIFICOS DE VALDIVIA, priority 2012, dated 2019)

What was measured:
[1] = Fluorescence ratio (mTFP/Venus) response of purified lactate sensor to lactate in vitro; assay type: binding; settings: comparison of sensor variants (FIG. 4)
Protocol: (§1) Protein Purification. Plasmid constructs were transformed into E. coli BL21 (DE3). A single colony was inoculated in 100 ml of LB medium with […] ampicillin (without IPTG) and shaken in the dark for 2-3 days. Cells were collected by centrifugation at 5000 rpm (4° C.) for 10 min and disrupted by sonication (Hielscher Ultrasound Technology) in 5 mL of Tris-HCl buffer pH 8.0. A cell-free extract was obtained by centrifugation at 10,000 rpm (4° C.) for 1 hour and filtering of the supernatant (0.45 μm). Proteins were purified using a Nickel resin (His Bin® from Novagen) as recommended by the manufacturer. Eluted proteins were quantified using the Biuret method and stored at −20° C. in 20% glycerol.
(§2) Fluorescence Measurements.

[2] = molecular target: T1, lactate sensor Variant 7: mTFP - full length L1dR from E. coli, no linkers - Venus, SEQ ID NO 7 (Escherichia coli, UniProt P0ACL7); experiment: Fluorescence ratio (FRET) dose-response of purified lactate nanosensor to lactate; assay type: binding; settings: millimolar levels
T1 construct: His tag (inferred from the nickel-resin purification); made in house; host or cells: E. coli BL21 (DE3)
Protocol: Also surprising was the observation that the DNA-binding domain is important for the FRET change, and that the sensors with no linkers are more responsive (FIG. 4). […] It contains the full length L1dR from E. coli and no linkers. […] The affinity constant of L1dR for L-lactate is not known. […] This unique property of L1dR confers the lactate sensor the desirable ability of reporting across four orders of magnitude (from 1 μM to 10 mM), instead of the two orders afforded by one-site sensors.
as §1, §2

[3] = tested on: monocarboxylate transporter (MCT) in astrocytes; experiment: Astrocytic lactate uptake via MCT monitored with the lactate sensor; assay type: cell-based, mouse; settings: 1 mM lactate
Description: (§3) Animals and Cell Cultures.
as §2
(§4) By controlling the exchange of lactate between cells and the interstitial space, MCTs are nodal points of tissue metabolism. MCTs catalyze the stoichiometric translocation of lactate and a proton and their activity can be measured with single-cell resolution by monitoring intracellular pH with a dye such as BCECF. However, 99.9% of protons are bound to proteins, phospholipids and other sites, and are exchanged through many transporters other than the MCT, which makes pH an imperfect proxy for lactate. To compare the performances of the lactate sensor of the present invention and BCECF, we chose astrocytes. When expressed in astrocytes, the lactate sensor of the present invention responded well to extracellular lactate, allowing real-time monitoring of lactate influx and efflux (FIG. 13). […] In contrast, exposure to extracellular lactate produced only a small change in intracellular pH as detected with BCECF (FIG. 15). […] Lactate may also be transported independently of protons through gap junctions (Rouach et al., 2008) and possibly through connexin hemichannels and pannexin channels, fluxes that are invisible to pH measurements and that may now be measured with the present invention.

MCT [4] = experiment: Intracellular lactate in HEK293 cells after MCT blockage; assay type: cell-based
Protocol: as §3, §2
The diagram in FIG. 14 illustrates how the intracellular concentration of lactate is determined by the dynamic balance between pyruvate production by glycolysis, pyruvate consumption by mitochondria and lactate exchange through MCTs. In cells that are exporting lactate, perturbation of the steady state by addition of a blocker of the MCT is expected to cause lactate accumulation. In cells that are net lactate importers, an MCT-blocker is expected to cause depletion in intracellular lactate. In both cases, the rate of change will be equal to the rate of lactate production or consumption. […] Phloretin is also known to inhibit GLUT glucose transporters, however this should not compromise the analysis of astrocytes, neurons, or the cell lines so far characterized, which maintain resting intracellular glucose at levels well above the Km of hexokinase (Bittner et al., 2010; Takanaga et al., 2008; Fehr et al., 2003). […]
To further validate methods 2 and 3, the blockers were applied sequentially and a mathematical model based on the kinetic model described in FIG. 14 was fitted to the data. The responses of intracellular lactate to transient inhibitions of the PT with 4-CIN (200 μM) and the MCTs with phloretin (50 μM) were measured in the same HEK293 cell in the presence of 25 mM glucose and no extracellular lactate. […]

MCT [5] = experiment: Intracellular lactate in astrocytes after MCT blockage; assay type: cell-based, mice; settings: 50 μM
Protocol: as §3, §2
The diagram in FIG. 14 illustrates how the intracellular concentration of lactate is determined by the dynamic balance between pyruvate production by glycolysis, pyruvate consumption by mitochondria and lactate exchange through MCTs. In cells that are exporting lactate, perturbation of the steady state by addition of a blocker of the MCT is expected to cause lactate accumulation. In cells that are net lactate importers, an MCT-blocker is expected to cause depletion in intracellular lactate. In both cases, the rate of change will be equal to the rate of lactate production or consumption. […] Phloretin is also known to inhibit GLUT glucose transporters, however this should not compromise the analysis of astrocytes, neurons, or the cell lines so far characterized, which maintain resting intracellular glucose at levels well above the Km of hexokinase (Bittner et al., 2010; Takanaga et al., 2008; Fehr et al., 2003). In these cells, glucose consumption remains constant for several minutes in the presence of glucose transporter blockers like phloretin or cytochalasin B (Bittner et al., 2010). Thus, during the first few minutes of phloretin application, the rate of lactate accumulation is not diminished by lack of glucose supply.

MCT [6] = experiment: Initial rate of astrocytic lactate uptake measured with the lactate sensor; assay type: cell-based, mice; settings: 1 mM lactate, 50 μM blocker, astrocytes
Description: as §3, §2, §4

[7] = molecular target: T2, mitochondrial pyruvate transporter (PT) (Homo sapiens, UniProt O95563+Q9Y5U8); experiment: Intracellular lactate in HEK293 cells after inhibition of the mitochondrial pyruvate transporter; assay type: cell-based; settings: concentration that does not affect MCT function
T2 construct: endogenous in cells; host or cells: HEK293 cells (ATCC) expressing the lactate sensor
T2 sequence (Q9Y5U8 1-109): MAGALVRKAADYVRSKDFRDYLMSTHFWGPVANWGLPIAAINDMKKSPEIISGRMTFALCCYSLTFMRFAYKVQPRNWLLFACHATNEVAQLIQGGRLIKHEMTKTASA
T2 sequence (O95563 1-127): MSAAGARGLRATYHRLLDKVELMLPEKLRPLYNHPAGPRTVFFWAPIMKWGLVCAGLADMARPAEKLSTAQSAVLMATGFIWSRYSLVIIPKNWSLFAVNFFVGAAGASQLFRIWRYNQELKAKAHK
Description: as §3, §2
Because the reaction catalyzed by LDH is relatively fast, the cytosolic pools of lactate and pyruvate are tightly linked, and variations in pyruvate are faithfully mimicked by lactate. Accordingly, perturbation of the steady-state by addition of a blocker of the mitochondrial pyruvate transporter (PT) will cause intracellular lactate accumulation at a rate equal to the rate of pyruvate consumption by mitochondria.
To further validate methods 2 and 3, the blockers were applied sequentially and a mathematical model based on the kinetic model described in FIG. 14 was fitted to the data. The responses of intracellular lactate to transient inhibitions of the PT with 4-CIN (200 μM) and the MCTs with phloretin (50 μM) were measured in the same HEK293 cell in the presence of 25 mM glucose and no extracellular lactate. The straight lines represent the slopes of the lactate increases fitted by linear regression during the first minute (4-CIN) or during the whole exposure (phloretin). The red line represents the best fit of the kinetic model to the data, as described in Experimental Procedures, assuming full inhibition of the transporters. […] PT and lactate release rates respectively estimated from the initial slopes of lactate increase after transporter inhibition were over 90% of those estimated by modeling. […]

[8] = tested on: oxidative phosphorylation in astrocytes; experiment: Rate of lactate production on inhibition of oxidative phosphorylation, measured with the lactate sensor; settings: Mus musculus, Astrocyte, read-out: fold increase in the rate of lactate production
Protocol: (§5) Animals and Cell Cultures. Animals used were mixed F1 male mice (C57BL/6J×CBA/J), kept in an animal room under Specific Pathogen Free (SPF) conditions at a room temperature of 20±2° C., in a 12/12 h light/dark cycle with free access to food and water. […] Mixed cortical cultures of neuronal and glial cells (1-3 day-old neonates) were prepared as described (Loaiza et al., 2003). […] Cultures were transfected at 60% confluence using Lipofectamine 2000 (Gibco) or alternatively, exposed to 5×10^6 PFU of Ad lactate sensor of the present invention (Vector Biolab), and studied after 24-72 h.
(§6) Fluorescence Measurements. […] Cells were imaged at room temperature (22-25° C.) in a 95% air/5% CO2-gassed solution of the following composition (in mM): 112 NaCl, 1.25 CaCl2, 1.25 MgSO4, 1-2 glucose, 10 HEPES, 24 NaHCO^3, pH 7.4, with 3 mM KCl (astrocytes) or 5 mM KCl (HEK and T98G) using an upright Olympus FV1000 Confocal Microscope equipped with a 20× water immersion objective (N.A. 1.0) and a 440 nm solid-state laser. Alternatively, cells were imaged with an Olympus IX70 or with an Olympus BX51 microscope equipped with a 40× oil-immersion objective (NA 1.3) or with a 20× water-immersion objective (NA 0.95). […]

[9] = tested on: oxidative phosphorylation; settings: astrocytes, 5 mM
Protocol: as §5, §6

## Variant 7: Most responsive FRET lactate sensor: mTFP, full length L1dR from E. coli, no linkers, Venus; SEQ ID NO 7
[1]
  change in fluorescence ratio in response to lactate: most responsive variant

## C[C@H](O)C(=O)O [lactate]
[2]
  change in FRET (specificity): only lactate induced a significant change in FRET
[3]
  initial rate of astrocytic uptake of lactate: 1.6 ± 0.5 µM/s

## O=C(CCc1ccc(O)cc1)c1c(O)cc(O)cc1O [phloretin]
MCT [4]; HEK293 cells, 50 μM
  effect on intracellular lactate: caused the expected increase in intracellular lactate
MCT [5]
  effect on intracellular lactate: caused the expected increase in intracellular lactate
MCT [6]
  inhibition of initial rate of astrocytic lactate uptake: 96±1%

## N#CC(=Cc1ccc(O)cc1)C(=O)O [Variant 4-CIN, α-Cyano-4-hydroxycinnamate]
MCT [4]; HEK293 cell, 200 μM, 25 mM glucose, no extracellular lactate
  block of MCTs: did not block MCTs to a significant extent
[7]
  effect on intracellular lactate: led to an increase in intracellular lactate

## [N-]=[N+]=[N-] [sodium azide]
[8]
  fold induction at 5000 µM: 26 ± 4

## [N-]=[N+]=[N-].[Na+] [azide, sodium azide]
[9]
  increase in the rate of lactate production: 26±4 fold

## OC[C@H]1OC(O)[C@H](O)[C@@H](O)[C@@H]1O (some centres unmarked) [glucose]
[2]
  change in FRET (specificity): only lactate induced a significant change in FRET
